Measurements taken from ChEMBL document CHEMBL1157493, “Synthesis and screening of small molecule inhibitors of anthrax edema factor” (Bioorg Med Chem Lett, 2008).

target: T1, Calmodulin-sensitive adenylate cyclase (Bacillus anthracis, UniProt P40136); test: Inhibition of Bacillus anthracis edema factor-induced edema in RAW264.7 mouse macrophages by cAMP-specific ELISA; format: cell-based
T1 sequence (P40136 whole entry): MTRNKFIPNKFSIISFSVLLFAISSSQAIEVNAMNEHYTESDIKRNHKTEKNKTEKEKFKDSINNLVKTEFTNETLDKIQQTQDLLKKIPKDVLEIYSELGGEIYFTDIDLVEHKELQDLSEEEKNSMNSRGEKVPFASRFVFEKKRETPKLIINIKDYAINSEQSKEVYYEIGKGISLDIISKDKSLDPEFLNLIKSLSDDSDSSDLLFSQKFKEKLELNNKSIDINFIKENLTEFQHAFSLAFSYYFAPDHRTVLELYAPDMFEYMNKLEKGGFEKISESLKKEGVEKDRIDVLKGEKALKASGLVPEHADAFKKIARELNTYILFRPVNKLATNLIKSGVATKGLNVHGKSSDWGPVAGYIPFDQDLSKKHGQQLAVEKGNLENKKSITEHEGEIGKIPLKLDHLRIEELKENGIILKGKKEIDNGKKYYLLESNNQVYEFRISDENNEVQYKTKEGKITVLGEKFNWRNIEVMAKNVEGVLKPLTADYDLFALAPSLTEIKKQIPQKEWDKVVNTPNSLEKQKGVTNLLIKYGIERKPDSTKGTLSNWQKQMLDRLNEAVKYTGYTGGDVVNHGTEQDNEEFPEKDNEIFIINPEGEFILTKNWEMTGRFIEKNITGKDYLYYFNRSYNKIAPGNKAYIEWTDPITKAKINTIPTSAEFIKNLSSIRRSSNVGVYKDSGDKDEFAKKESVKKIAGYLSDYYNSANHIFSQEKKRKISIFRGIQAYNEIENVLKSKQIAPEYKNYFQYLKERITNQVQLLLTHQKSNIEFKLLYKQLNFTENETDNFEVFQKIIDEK

SMILES	IC50
O=C1C=C(c2cccc(O)c2)CCC1	> 100 µM
O=C1C=C(c2cccnc2)CCC1	> 100 µM
CC1(C)CC(=O)C=C(c2cccc3c2oc2ccccc23)C1	> 100 µM
O=C1C=C(c2ccoc2)CCC1	> 100 µM
COc1cccc(C2=CC(=O)CCC2)n1	> 100 µM
Cn1cc(C2=CC(=O)CCC2)cn1	> 100 µM
O=C1C=C(c2ccccc2)CCC1	> 100 µM
O=C1C=C(c2cccc3c2oc2ccccc23)CCC1	> 100 µM
CC1(C)CC(=O)C=C(c2ccc3[nH]ccc3c2)C1	> 100 µM
O=C1C=C(c2ccsc2)CCC1	> 100 µM
O=C1C=C(c2ccc3ncccc3c2)CCC1	> 100 µM
O=C1C=C(c2cccs2)CCC1	> 100 µM
O=C1C=C(c2nccs2)CCC1	> 100 µM
